# Results as given in ChEMBL document CHEMBL6078714, “Discovery of N-Trifluoromethylated Noscapines as Novel and Potent Agents for the Treatment of Glioblastoma” (J Med Chem, 2025).
# pIC50: −log10 of the molar value. Calls of active or inactive are those of the source. The rule behind the calls is not given here.
# What was measured:
# [1] = Stability of compound in sodium phosphate buffer at pH 7.4 measured after 48 hrs by 1H NMR analysis; type: physicochemical; settings: pH 7.4, 48 h
# [2] = Stability of compound in 0.1M HCl solution at pH 1.0 measured after 48 hrs by 1H NMR analysis; type: physicochemical; settings: buffer, pH 1, 48 h
# [3] = Stability of compound in sodium carbonate buffer at pH 10 measured after 48 hrs by 1H NMR analysis; type: physicochemical; settings: pH 10, 48 h
# [4] = Stability of compound in 0.1M HCl solution at pH 1.0 assessed as parent compound remaining measured after 6 hrs by 1H NMR analysis; type: physicochemical; settings: read-out: Stability
# U-87 MG [5] = assay: Antiproliferative activity against human U87 cells; type: functional, cell-based, U-87MG ATCC
# [6] = Permeability of compound incubated for 12 hrs by PAMPA; type: ADME; settings: read-out: permeability
# U-87 MG [7] = assay: Antiproliferative activity against human U-87 MG cells assessed as inhibition of cell proliferation incubated for 72 hrs by CCK8 assay; type: functional, cell-based, U-87MG ATCC
# U-118-MG [8] = assay: Antiproliferative activity against human U-118-MG cells assessed as inhibition of cell proliferation incubated for 72 hrs by CCK8 assay; type: functional, cell-based
# U-118-MG [9] = assay: Antiproliferative activity against human U-118- MG cells assessed as inhibition of cell proliferation at 10 uM by crystal violet staining based analysis; type: functional
# U-118-MG [10] = assay: Antiproliferative activity against human U-118- MG cells assessed as inhibition of cell proliferation by crystal violet staining based analysis; type: functional; settings: dose 10-40 µM
# [11] = Stability of compound in 0.1M HCl solution at pH 1.0 assessed as parent compound remaining measured after 48 hrs by 1H NMR analysis; type: physicochemical; settings: read-out: Stability
# U-118-MG [12] = assay: Induction of apoptosis in human U-118-MG cells assessed as apoptotic rate at 20 uM incubated for 24 hrs by Annexin V-FITC/PI staining based flow cytometric analysis relative to control; type: functional
# U-118-MG [13] = assay: Cell cycle arrest in human U-118-MG cells assessed as accumulation of cells at G1 phase at 20 uM incubated for 24 hrs by flow cytometric analysis (reference value: 56.2 %); type: functional
# U-118-MG [14] = assay: Cell cycle arrest in human U-118-MG cells assessed as accumulation of cells at S phase at 20 uM incubated for 24 hrs by flow cytometric analysis (reference value: 10.7 %); type: functional
# U-118-MG [15] = assay: Cell cycle arrest in human U-118-MG cells assessed as accumulation of cells at G2 phase at 20 uM incubated for 24 hrs by flow cytometric analysis (reference value: 30.6 %); type: functional
# [16] = Drug distribution in male Swiss albino mouse plasma at 5 mg/kg, iv measured after 0.5 hrs; type: ADME, organism-based
# [17] = Drug distribution in male Swiss albino mouse brain at 5 mg/kg, iv measured after 0.5 hrs; type: ADME, organism-based; settings: read-out: Ct
# [18] = Ratio of drug concentration in male Swiss albino mouse brain to plasma at 5 mg/kg, iv measured after 0.5 hrs; type: ADME, organism-based; settings: read-out: BPR
# U-118-MG [19] = assay: Antitumor activity against human U-118-MG cells xenografted in male BALB/c nude mouse assessed as tumor growth inhibition at 10 mg/kg, ip administered daily for 4 weeks relative to control; type: functional; settings: 672 h, read-out: TGI
# U-118-MG [20] = assay: Cell cycle arrest in human U-118-MG cells assessed as accumulation of cells at G1 phase at 100 uM incubated for 24 hrs by flow cytometric analysis (reference value: 56.2 %); type: functional
# U-118-MG [21] = assay: Cell cycle arrest in human U-118-MG cells assessed as accumulation of cells at S phase at 100 uM incubated for 24 hrs by flow cytometric analysis (reference value: 10.7 %); type: functional
# U-118-MG [22] = assay: Cell cycle arrest in human U-118-MG cells assessed as accumulation of cells at G2 phase at 100 uM incubated for 24 hrs by flow cytometric analysis (reference value: 30.6 %); type: functional
# U-118-MG [23] = assay: Antitumor activity against human U-118-MG cells xenografted in male BALB/c nude mouse assessed as tumor growth inhibition at 2.5 mg/kg, ip administered daily for 4 weeks relative to control; type: functional; settings: 672 h, read-out: TGI
# [24] = Toxicity in male BALB/c nude mouse xenografted with human U-118-MG cells assessed as body weight loss at 2.5 mg/kg, ip administered daily for 4 weeks; type: organism-based; settings: in vivo, 672 h
# [25] = Nephrotoxicity in male BALB/c nude mouse xenografted with human U-118-MG cells assessed as intravascular necrosis of renal tubules at 0.5 mg/kg, ip administered daily for 4 weeks by H and E staining based analysis; type: toxicity, organism-based; settings: in vivo, 672 h
# [26] = Nephrotoxicity in male BALB/c nude mouse xenografted with human U-118-MG cells assessed as shedding of renal tubular epithelial cells at 0.5 mg/kg, ip administered daily for 4 weeks by H and E staining based analysis; type: toxicity, organism-based; settings: in vivo, 672 h
Stability [1],Stability [2],Papp at 12 h [6] [×10⁻⁶ cm/s],pIC50 (U-87 MG [7]),Compound,pIC50 (U-118-MG [8]),Activity (U-118-MG [9]),Activity (U-118-MG [10]),further results
–,–,15.8,4.48,COc1ccc2c(c1OC)C(=O)O[C@@H]2[C@H]1c2c(c(I)c3c(c2OC)OCO3)CCN1C(F)(F)F,4.76,Active,Dose-dependent-effect,–
Stable,–,18,4.17,COc1ccc2c(c1OC)C(=O)O[C@@H]2[C@H]1c2c(cc3c(c2OC)OCO3)CCN1C(F)(F)F,4.50,Active,Dose-dependent-effect,Stability [3]: Stable; remaining at 48 h [11]: 73%
–,–,16.8,4.59,COc1ccc2c(c1OC)C(=O)O[C@@H]2[C@H]1c2c(c(Cl)c3c(c2OC)OCO3)CCN1C(F)(F)F,5.01,Active,Dose-dependent-effect,–
–,–,12.8,4.41,COc1ccc2c(c1OC)C(=O)O[C@@H]2[C@H]1c2c(c(C#N)c3c(c2OC)OCO3)CCN1C(F)(F)F,4.71,Active,Dose-dependent-effect,–
–,–,11,< 4.00,COc1ccc2c(c1OC)C(=O)O[C@@H]2[C@H]1c2c(cc3c(c2OC)OCO3)CCN1C [NOSCAPINE],< 4.00,–,–,Activity (U-118-MG [12]): 16.3%; Activity (U-118-MG [13]): 52.9%; Activity (U-118-MG [14]): 10.7%; Activity (U-118-MG [15]): 34.1%; concentration at 0.5 h [16]: 45.3 ng/mL; concentration at 0.5 h [17]: 19.6 ng/g; Kp at 0.5 h [18]: 0.43; inhibition in vivo at 10 mg/kg (U-118-MG [19]): 31%

# Second part, the compound before the results:
Compound,Stability [1],Stability [2],Papp at 12 h [6] [×10⁻⁶ cm/s],pIC50 (U-87 MG [7]),pIC50 (U-118-MG [8]),Activity (U-118-MG [9]),Activity (U-118-MG [10]),further results
FC(F)(F)N1CCc2ccccc2[C@@H]1c1ccccc1,Stable,Stable,–,–,–,–,–,–
FC(F)(F)N1CCc2ccccc2C1Cc1ccccc1 (configuration not stated),Stable,Stable,–,–,–,–,–,–
FC(F)(F)N1CCCc2ccccc21,Unstable,Unstable,–,–,–,–,–,Stability [3]: Unstable; remaining at 6 h [4]: 7%
CC1c2ccccc2CCN1C(F)(F)F (configuration not stated),Stable,Stable,–,–,–,–,–,–
CC1=C2CC[C@@](C)(O)[C@@H]2[C@H]2OC(=O)[C@@H](CN(C)C)[C@@H]2CC1,–,–,–,–,–,–,–,pIC50 (U-87 MG [5]): 4.68
FC(F)(F)N1CCc2ccccc2C1,Stable,Stable,–,–,–,–,–,–
Cn1nnc2c(C(N)=O)ncn2c1=O [TEMOZOLOMIDE],–,–,1.47,< 4.00,< 4.00,–,–,Activity (U-118-MG [20]): 41.3%; Activity (U-118-MG [21]): 18.9%; Activity (U-118-MG [22]): 36.8%; inhibition in vivo at 2.5 mg/kg (U-118-MG [23]): 80.4%; Activity [24]: Toxic; Activity [25]: Toxic; Activity [26]: Toxic
